Assay results taken from patent publication US20090203797A1, “Antimycotic Patch” (priority 2007, published 2009).
Counter-ions that a name gives are not always drawn.

Columns and labels:
[1] = from the interview form provided with 125 mg Lamisil Tablets; cited from earlier work
[2] = octanol/water partition coefficient logKo/w; assay type: physicochemical; settings: 32° C., HPLC of each layer
Method: In the present invention, logKo/w is determined in the following manner. First, a drug is dissolved in a suitable amount of octanol (or water) at 32° C. followed by the further addition of an equal amount of water (or octanol) and mixing well. After the mixture divides into two layers, the concentration of drug in each layer is measured by HPLC and logKo/w is determined using the equation below. LogKo/w=log(drug concentration in octanol phase/drug concentration in aqueous phase)

logP [2] | Compound | logKo/w value [1]
– | CN(C/C=C/C#CC(C)(C)C)Cc1cccc2ccccc12 [terbinafine hydrochloride] | 0.87
5.8 | CN(C/C=C/C#CC(C)(C)C)Cc1cccc2ccccc12 [terbinafine-base] | –
